ChEMBL document CHEMBL3872232, “2-Azetidinones: Synthesis and biological evaluation as potential anti-breast cancer agents” (Eur J Med Chem, 2016)

Experiments:
[1] = Antiproliferative activity against human MCF7 cells after 48 hrs by MTT assay; assay type: functional, cell-based; settings: MCF7, 48 h
[2] = Antiproliferative activity against human MDA-MB-231 cells after 48 hrs by MTT assay; assay type: functional, cell-based; settings: MDA-MB-231, 48 h
[3] = Antiproliferative activity against human mammary epithelial cells after 48 hrs by MTT assay; assay type: cell-based, Epithelial cell
[4] = system: MDA-MB-231; experiment: Effect on Cdk6 mRNA expression in human MDA-MB-231 cells assessed as ratio of Cdk6 to GAPDH expression level at 5 uM after 24 hrs by RT-PCR method (reference value: 1.37); assay type: functional
[5] = system: MDA-MB-231; experiment: Effect on Cdk2 mRNA expression in human MDA-MB-231 cells assessed as ratio of Cdk2 to GAPDH expression level at 5 uM after 24 hrs by RT-PCR method (reference value: 0.26); assay type: functional
[6] = Cell cycle arrest in human MCF7 cells assessed as accumulation at sub-G1 phase at 5 uM after 24 hrs by propidium iodide staining based flow cytometry (reference value: 3.58%); assay type: functional
[7] = system: MDA-MB-231; experiment: Inhibition of Akt in human MDA-MB-231 cells after 48 hrs by ELISA; assay type: cell-based
[8] = system: MDA-MB-231; experiment: Effect on p53 gene expression in human MDA-MB-231 cells assessed as ratio of p53 to beta-actin expression level at 5 uM after 24 hrs by RT-PCR method (reference value: 0.22); assay type: functional
[9] = system: MCF7; experiment: Induction of apoptosis in human MCF7 cells assessed as necrotic cells at 5 uM after 24 hrs by Annexin V-FITC/propidium iodide staining based flow cytometry (reference value: 3.7%); assay type: functional
[10] = Safety index, ratio of compound IC50 to colchicine IC50 for human mammary epithelial cells; assay type: ADME, cell-based, Epithelial cell; settings: read-out: Ratio IC50
[11] = species: Homo sapiens; experiment: Inhibition of Akt in human MDA-MB-231 cells assessed as ratio of phosphorylated Akt to GAPDH expression level at 5 uM after 48 hrs by immunoblot analysis (reference value: 0.33 to 0.81); assay type: cell-based
[12] = Cell cycle arrest in human MCF7 cells assessed as accumulation at G0/G1 phase at 5 uM after 24 hrs by propidium iodide staining based flow cytometry (reference value: 83.25%); assay type: functional
[13] = system: MDA-MB-231; experiment: Effect on cyclin E mRNA expression in human MDA-MB-231 cells assessed as ratio of cyclin E to GAPDH expression level at 5 uM after 24 hrs by RT-PCR method (reference value: 0.13); assay type: functional
[14] = system: MDA-MB-231; experiment: Effect on cyclin D1 mRNA expression in human MDA-MB-231 cells assessed as ratio of cyclin D1 to GAPDH expression level at 5 uM after 24 hrs by RT-PCR method (reference value: 0.71); assay type: functional
[15] = system: MDA-MB-231; experiment: Induction of apoptosis in human MDA-MB-231 cells assessed as late apoptotic cells at 5 uM after 24 hrs by Annexin V-FITC/propidium iodide staining based flow cytometry (reference value: 1.8%); assay type: functional
[16] = Cell cycle arrest in human MCF7 cells assessed as accumulation at G2/M phase at 5 uM after 24 hrs by propidium iodide staining based flow cytometry (reference value: 9.29%); assay type: functional
[17] = system: MDA-MB-231; experiment: Effect on p27 mRNA expression in human MDA-MB-231 cells assessed as ratio of p27 to GAPDH expression level at 5 uM after 24 hrs by RT-PCR method (reference value: 0.23); assay type: functional
[18] = system: MDA-MB-231; experiment: Effect on Bid gene expression in human MDA-MB-231 cells assessed as ratio of Bid to beta-actin expression level at 5 uM after 24 hrs by RT-PCR method (reference value: 0.17); assay type: functional
[19] = species: Homo sapiens; experiment: Inhibition of Akt in human MDA-MB-231 cells assessed as ratio of phosphorylated Akt to GAPDH expression level at 2 uM after 48 hrs by immunoblot analysis (reference value: 0.33 to 0.81); assay type: cell-based
[20] = species: Homo sapiens; experiment: Inhibition of Akt in human MDA-MB-231 cells assessed as ratio of phosphorylated GSK-3beta to GAPDH expression level at 2 uM after 48 hrs by immunoblot analysis (reference value: 0.14 to 1.50); assay type: cell-based
[21] = system: MDA-MB-231; experiment: Ratio of Bcl-2 to Bax gene expression in human MDA-MB-231 cells at 5 uM after 24 hrs by RT-PCR method (reference value: 0.03); assay type: functional
[22] = system: MDA-MB-231; experiment: Inhibition of Akt in human MDA-MB-231 cells assessed as reduction in GSK-3beta phosphorylation after 48 hrs by immunoblot analysis; assay type: cell-based
[23] = system: MDA-MB-231; experiment: Effect on p21 mRNA expression in human MDA-MB-231 cells assessed as ratio of p21 to GAPDH expression level at 5 uM after 24 hrs by RT-PCR method (reference value: 0.02); assay type: functional
[24] = Cell cycle arrest in human MCF7 cells assessed as accumulation at S phase at 5 uM after 24 hrs by propidium iodide staining based flow cytometry (reference value: 4.23%); assay type: functional
[25] = system: MCF7; experiment: Induction of apoptosis in human MCF7 cells assessed as late apoptotic cells at 5 uM after 24 hrs by Annexin V-FITC/propidium iodide staining based flow cytometry (reference value: 2.3%); assay type: functional
[26] = species: Homo sapiens; experiment: Inhibition of Akt in human MDA-MB-231 cells assessed as ratio of phosphorylated GSK-3beta to GAPDH expression level at 10 uM after 48 hrs by immunoblot analysis (reference value: 0.14 to 1.50); assay type: cell-based
[27] = system: MCF7; experiment: Induction of apoptosis in human MCF7 cells assessed as early apoptotic cells at 5 uM after 24 hrs by Annexin V-FITC/propidium iodide staining based flow cytometry (reference value: 1.6%); assay type: functional
[28] = system: MDA-MB-231; experiment: Induction of apoptosis in human MDA-MB-231 cells assessed as necrotic cells at 5 uM after 24 hrs by Annexin V-FITC/propidium iodide staining based flow cytometry (reference value: 1.3%); assay type: functional
[29] = system: MDA-MB-231; experiment: Induction of apoptosis in human MDA-MB-231 cells assessed as early apoptotic cells at 5 uM after 24 hrs by Annexin V-FITC/propidium iodide staining based flow cytometry (reference value: 0.5%); assay type: functional
[30] = species: Homo sapiens; experiment: Inhibition of Akt in human MDA-MB-231 cells assessed as ratio of phosphorylated GSK-3beta to GAPDH expression level at 5 uM after 48 hrs by immunoblot analysis (reference value: 0.14 to 1.50); assay type: cell-based
[31] = species: Homo sapiens; experiment: Inhibition of Akt in human MDA-MB-231 cells assessed as ratio of phosphorylated Akt to GAPDH expression level at 10 uM after 48 hrs by immunoblot analysis (reference value: 0.33 to 0.81); assay type: cell-based
[32] = Homo sapiens, Epithelial cell, 48 h, read-out: IC50

For COC(=O)/C(=C/c1ccccc1)CN1C(=O)[C@@H](OC)[C@H]1c1cccc(F)c1, the IC50 [1] was 13.7 µM, the IC50 [2] was 34.4 µM and the IC50 [3, 32] was 38.5 µM.

CO[C@@H]1C(=O)N(C/C(C#N)=C/c2ccccc2)[C@@H]1c1ccc2c(c1)OCO2 showed an IC50 [1] of 10.6 µM and an IC50 [3, 32] of over 100 µM.

With COC(=O)/C(=C/c1ccccc1)CN1C(=O)[C@@H](OC)[C@H]1c1ccc(Cl)cc1 the IC50 [1] was 15.2 µM, the IC50 [2] was 15.6 µM and the IC50 [3, 32] was 37.9 µM.

In the case of CO[C@@H]1C(=O)N(C/C(C#N)=C/c2ccccc2)[C@@H]1c1cccc(C)c1, the IC50 [1] is reported as 11.3 µM, the IC50 [2] is reported as 11.1 µM and the IC50 ([3]; epithelial cell) is reported as “Non-Toxic”.

In the case of COc1ccc(OC)c([C@@H]2[C@H](OC)C(=O)N2C/C(C#N)=C/c2ccccc2)c1, the IC50 [2] is reported as 23.4 µM and the IC50 [3, 32] is reported as over 100 µM.

In the case of COC(=O)/C(=C/c1ccccc1)CN1C(=O)[C@@H](OC)[C@H]1c1ccccc1C(F)(F)F, the IC50 [2] is reported as 17.6 µM and the IC50 ([3]; epithelial cell) is reported as “Non-Toxic”.

In the case of CCOC(=O)/C(=C/c1ccccc1)CN1C(=O)[C@@H](OC)[C@H]1c1ccc(Cl)cc1, the IC50 [1] is reported as 12.7 µM, the IC50 [2] is reported as 11.1 µM and the IC50 ([3]; epithelial cell) is reported as “Non-Toxic”.

For CO[C@@H]1C(=O)N(C/C(C#N)=C/c2ccccc2)[C@@H]1c1ccc(Br)cc1, the IC50 ([3]; epithelial cell) was “Non-Toxic”.

In the case of CO[C@@H]1C(=O)N(C/C(C#N)=C/c2ccccc2)[C@@H]1c1ccc(F)cc1, the Ratio [4] is reported as 1.3, the Ratio [5] is reported as 0.32 and the Activity [6] is reported as 2.83%. For the same molecule, the inhibition [7] was “Dose-dependent effect”, the Ratio [8] was 0.21 and the Activity [9] was 6.9%. The selectivity ratio [10] was 10, the Ratio [11] was 0.45 and the Activity [12] was 83.2%. The Ratio [13] was 0.2, the Ratio [14] was 1.59 and the Activity [15] was 4.7%. For the same molecule, the Activity [16] was 9.68%, the Ratio [17] was 0.33 and the Ratio [18] was 0.39. For the same molecule, the Ratio [19] was 0.42, the IC50 [1] was 8.31 µM and the Ratio [20] was 0.42. For the same molecule, the IC50 [2] was 9.24 µM, the Ratio [21] was 0.03 and the inhibition [22] was “Dose-dependent effect”. The Ratio [23] was 0.09, the Activity [24] was 5.15% and the Activity [25] was 2.3%. For the same molecule, the Ratio [26] was 0.2, the Activity [27] was 1.7% and the Activity [28] was 1.6%. For the same molecule, the Activity [29] was 1.1%, the Ratio [30] was 0.22 and the Ratio [31] was 0.58. For the same molecule, the IC50 ([3]; epithelial cell) was “Non-Toxic”.

In the case of COC(=O)/C(=C/c1ccccc1)CN1C(=O)[C@@H](OC)[C@H]1c1ccccc1, the IC50 [1] is reported as 12.9 µM, the IC50 [2] is reported as 11.1 µM and the IC50 ([3]; epithelial cell) is reported as “Non-Toxic”.

For COC(=O)/C(=C/c1ccccc1)CN1C(=O)[C@@H](OC)[C@H]1c1cccc([N+](=O)[O-])c1, the IC50 [1] was 15 µM, the IC50 [2] was 14.4 µM and the IC50 ([3]; epithelial cell) was “Non-Toxic”.

With CO[C@@H]1C(=O)N(C/C(C#N)=C/c2ccccc2)[C@@H]1c1ccc(Cl)cc1 the IC50 [1] was 19.8 µM, the IC50 [2] was 18 µM and the IC50 ([3]; epithelial cell) was “Non-Toxic”.
